Experimental data taken from patent publication EP3928775A1, “USE OF ANTI[…] FOR TREATING THE COVID-19 DISEASE” (priority 2020, dated 2021).
Like-named read-outs stand apart in the source and are kept apart here.

How the values were obtained:
Covid-19 = type: in vivo, human
SARS-CoV-2 = conditions: in-vitro study, reference 11; cited from earlier work
[1] = Patients admitted to the hospital with Covid-19, exposed vs not exposed

Structure (SMILES): CN(C)CCC[C@@]1(c2ccc(F)cc2)OCc2cc(C#N)ccc21 [Escitalopram]
- risk of intubation or death (in words) (Covid-19; [1]): significantly and substantially reduced
- antiviral effects on SARS-CoV-2 (SARS-CoV-2): has not be observed

Structure (SMILES): CNCCC(Oc1ccc(C(F)(F)F)cc1)c1ccccc1 (stereo not drawn) [Fluoxetine]
- risk of intubation or death (in words) (Covid-19; in vivo): significantly and substantially reduced
- antiviral effects on SARS-CoV-2 (SARS-CoV-2): antiviral effects

Structure (SMILES): Fc1ccc([C@@H]2CCNC[C@H]2COc2ccc3c(c2)OCO3)cc1 [Paroxetine]
- antiviral effects on SARS-CoV-2 (SARS-CoV-2): has not be observed

Structure (SMILES): COc1ccc(C(CN(C)C)C2(O)CCCCC2)cc1 (stereo not drawn) [Venlafaxine]
- risk of intubation or death (in words) (Covid-19; [1]): significantly and substantially reduced
